Measurements taken from a melting point compilation (Tetko et al.; mined from patent text by program, amines drawn as free bases though some values may be those of a salt).

melting point [°C] | Compound
196 to 198 | COCOc1cc(Cl)ccc1-c1cc(-c2cccc([N+](=O)[O-])c2)c(C#N)c(N)n1
189 to 192 | CC(C)c1cccc(C(C)C)c1NC(=O)NCC1(c2ccc(Cl)cc2)CCCC1
64 | CC(C)(Cl)c1cc(C(C)(C)Cl)cc(C(C)(C)Cl)c1
247 | CC(C)Nc1nc(C(=O)O)cn1C
211 to 212 | CCOCCOc1c(C)cc(-c2ccc3c(c2)C=C(C(=O)Nc2ccc(CN(C)C4CCOCC4)cc2)CCS3(=O)=O)cc1C
39 to 41 | c1ccc(CNn2cccc2)cc1
196 to 197 | CCC(C)C(=O)Nc1nn(C)c2c1sc1cc(N)ccc12 (stereo not drawn)
71 to 72 | CCOC(=O)Cc1c(C(=O)OCC)c(C)cn1C
75 to 76 | O=C(CCCCCCS(=O)(=O)c1ccc2ccccc2c1)c1ncco1
182 to 184 | O=[N+]([O-])c1cccc2nc3c(nc12)N1CCCCC1CO3 (stereo not drawn)
177 to 178 | C=CCc1ccc2c(c1O)CCC(=O)N2c1ccccc1
142 to 144 | CCC1(CCCCN2CCN(c3cccc(Cl)c3)CC2)C(=O)Nc2ccc(C)cc21 (stereo not drawn)
120 to 124 | CCOC(=O)C1CCN(c2cc(-c3ccccc3)nc3ccc(F)cc23)CC1
98.5 | CSc1cc(-c2ccc(C(F)(F)F)cc2)nc(-c2cccc(C(F)(F)F)c2)c1
95 to 100 | CN(CCC(Oc1ccc(S(=O)(=O)c2ccccc2)cc1)c1ccccc1)CC(=O)O (stereo not drawn)
89 to 90 | CCCOc1ccc(COCC)cc1-c1nc2c(CCC)nn(C)c2c(=O)[nH]1
164 | NS(=O)(=O)c1cc(C(=O)Nn2cnc3cc(C(F)(F)F)ccc32)ccc1Cl
152 to 154 | CN(Nc1ccccc1COc1ccn(-c2ccc(Cl)cc2)n1)C(N)=O
238 to 242 | CCOC(=O)c1n[nH]c2ncc(I)cc2c1=O
145 | OC(c1nccn1CCc1ccccc1)C1CCNCC1 (stereo not drawn)
72 to 74 | COc1ccc(CSCC(C(=O)O)C(F)(F)F)cc1 (stereo not drawn)
139 to 140 | O=CN(O)C(CCCO)CS(=O)(=O)c1ccc(-c2ccc(C(F)(F)F)cc2)cc1 (stereo not drawn)
87 to 92 | COc1ccc(C(CNc2ncnc3c2ncn3C2OC(CO)C(O)C2O)c2ccccc2)cc1 (stereo not drawn)
97 to 98 | Cc1cccc(COc2cccc(OCc3cccc(Cl)n3)c2)c1C(=O)O

melting point [°C] | Compound
104 to 106 | O=C1C=C(CO)C(=O)N1
190 to 193 | CCc1ccc(C(=O)O)c(O)n1
144 to 147 | O=C(O)CCCCCc1cccc2cncn12
71 to 75 | Cc1ccc(S(=O)(=O)N2CCC[C@@H]2C(=O)N[C@H](Cc2ccccc2)C(=O)O)cc1
130 to 131 | CCOC(=O)c1cc2nc(C(F)(F)F)ccc2n1Cc1ccncc1
189 to 191 | NC(Cc1cccc2ccccc12)(C(=O)O)C1CC(C(=O)O)C1 (stereo not drawn)
149 to 150 | COC(=O)Cc1ccccc1NC(=S)NCN
186 to 190 | CCOC(=O)NN=Cc1c[nH]c(COC)n1
91 to 92 | CC(C)(C)OC(=O)[C@@H]1CCC(=O)N1
87.5 to 89.5 | Cc1c([N+](=O)[O-])ccc(Cl)c1C#N
> 200 | Cc1cc(C)c(C2C(=O)OC3(CCN(N(C)C)CC3)C2=O)c(C)c1 (stereo not drawn)
99 to 101 | COc1cc(C#N)ccc1OCCCBr
130 | Nc1ccc2c(cnn2Cc2cccc(F)c2)c1
140 to 142 | CSc1ccc2sc(C(N)=O)c(N(C)C)c2c1
280 to 282 | CS(=O)(=O)Cc1cnc2ccccc2c1O
70 to 71 | BrCOc1cccc(OCc2ccccc2)c1
228 to 231 | CCCCCc1cc2c(nc(O)n2CC2CCN(C(C)=O)CC2)c(N)n1
177 to 179 | COc1cccc(CN(CC(=O)O)Cc2ccccc2)c1
120 to 122 | Cc1ccsc1C(=O)Cc1ccc(C(F)(F)F)cc1[N+](=O)[O-]
187 to 188 | COC(=O)[C@H]1[C@H](c2ccc3c(c2)OCO3)c2ccc(O)cc2[C@@H]1c1ccc(OC)cc1 (racemic)
160 to 162 | CCCc1c(SCCCSc2ccc(-c3nnn[nH]3)cc2)ccc(C(C)=O)c1O
93 to 94 | CCOC(=O)c1cccc(-c2ccc(-c3ccc(C(F)(F)F)cc3)o2)c1
155 | COC(=O)COC1C(O)C(CO)OC(Oc2ccc(N)cc2)C1O (stereo not drawn)
180 | COc1ccc(CCN(C)CCc2ccc(NC(=O)c3cccc4c(=O)c5ccccc5[nH]c34)cc2)cc1OC

melting point [°C] | Compound
89 to 92 | C=C(C)Cc1cccc(C(=O)O)c1S
132 | CNC(=O)c1ccc(F)c2c1CC(N(CCCc1c[nH]c3ccc(F)cc13)C1CCC1)CO2 (stereo not drawn)
127 to 130 | CCOc1cc2c(Nc3cc(OC)c(Cl)cc3Cl)c(C#N)cnc2cc1OCCCN1CCN(CC)CC1
224 to 226 | CCNCC1CN(c2c(F)cc3c(=O)c(C(=O)O)cn(C4CC4)c3c2F)CC1C (stereo not drawn)
263 to 265 | CC(=O)Nc1nc2c(Oc3cc(-c4ccc(C(F)(F)F)cc4NCc4cncn4C)ncn3)cccc2s1
141 to 142 | O=C(O)C(=O)CC(=O)c1cn(Cc2ccccc2)c2ccccc2c1=O
166 to 169 | CCNn1cc(C(=O)O)c(=O)c2ccc(C)nc21
214 to 217 | Cc1cc2cc(CN3CCCC3)cnc2cc1NC(=O)c1ccc(-c2ccc(Cl)cc2)cc1
177 to 179 | CC(C)c1cc(N(C)C)cc2c1C(=O)N(COC(=O)c1c(Cl)cccc1Cl)S2(=O)=O
65 | Nc1ccc(C(=O)OCCOC(=O)CC[C@@H](C(=O)O)n2c3ccccc3c3ccccc32)cc1
166 to 167 | CC1(C)C(=O)N(c2ccc(C#N)c(Cl)c2)C(=O)N1CCCCCN1C(=O)N(c2ccc(C#N)c(Cl)c2)C(=O)C1(C)C
178 to 180 | CCOC(=O)c1nc(NC(C)=O)sc1Cc1ccccc1
79 | CCOC(=O)C1=C(N(C)C)N=C(C)C(C(=O)OCC)C1c1cccc(Cl)c1 (stereo not drawn)
83 to 85.5 | CCCCCS(=O)(=O)NC(=O)/C=C/c1ccc(OC(COCC)COCC)cc1Oc1ncc(C(F)(F)F)cc1Cl
294 to 295 | O=C(O)c1ccc(-c2cnc(-c3ccc(C(F)(F)F)cc3)s2)cc1
147 to 148 | Cc1csc(-c2ccc3c(c2)C=C(C(=O)Nc2ccc(CN(C)C4CCOCC4)cc2)CCO3)c1
88 to 89 | N#CC(=CNC1CC1)C(=O)c1cc(F)c(F)c(F)c1F
141 to 142 | CC(=O)OCC1CCC2C3CCC4=CC(=O)CCC4(C)C3CCC12C (stereo not drawn)
242 to 243 | O=C(Nc1cccnc1O)C1CCCC1
81 to 82 | COc1ccccc1SCCCCCC(=O)O
157 | O=C(CC1CCN(Cc2ccccc2)CC1)Nc1cncnc1NCc1ccc(F)cc1
88 to 90 | COc1ccc(N(CCCCO)S(=O)(=O)c2c(F)c(F)c(F)c(F)c2F)cc1
156 | CSc1cc(C(C)(C)C)c(O)c(C(=O)Nc2ccc(S(=O)(=O)C(F)(F)F)cc2Cl)c1C
139 to 140 | CN1CCN(c2cccc(N)c2)C(=O)C1

melting point [°C] | Compound
120 to 121 | O=Cc1ccc(-c2ccc(Br)cn2)cc1
200 to 202 | CN1CCN(CC2CCCCN2CC(=O)N2c3ccccc3NC(=O)c3ccccc32)CC1 (stereo not drawn)
186 to 188 | C=C1N(C(C)C)C(=O)OC12CCN(C(=O)NC(=O)c1cccnc1Cl)CC2
115 | C=CCO[C@H]1[C@@H](OCc2ccccc2)[C@@H](OCc2ccccc2)[C@H](OCc2ccccc2)[C@@H](OCc2ccccc2)[C@@]1(CCC)OC(=O)CCC (racemic)
173 to 174 | O=C(Nc1cccc(C(F)(F)F)c1)N1COc2cc(O)ccc21
123 to 125 | O=S(=O)(c1ccc(Cl)cc1)N(Cc1ccc(OC2CCOCC2)nc1)C1CCOCC1
209 | O=C(Nc1cccc(S(=O)(=O)N(CCO)CCO)c1)c1cnn2c(C(F)(F)F)cc(-c3ccc(C(F)(F)F)cc3)nc12
101 to 103 | COc1ccc(-n2[nH]c(Cc3c(C)n(C(=O)c4ccc(Cl)cc4)c4ccc(OC)cc34)cc2=O)cc1
50 to 52 | CCCOc1ccc(Br)c(C(C)=O)c1
170 to 177 | CCCC(NS(=O)(=O)c1ccc(Cl)cc1)C(=S)Nc1ccc(CC(=O)O)cc1 (racemic)
133 to 134 | CC1CCCCN1CCNc1ccnc2cc(Cl)ccc12 (racemic)
152 to 153 | O=C1C(c2ccccc2)=C(c2ccccc2)C(=O)N1c1ccccc1C(F)(F)F
142 to 145 | O=C(Nc1ccc2c(c1)CCOC2)OCc1ccccc1
87 to 90 | CC(C)(C)OC(=O)N[C@@H](Cc1ccccc1)C(=O)C=[N+]=[N-]
168 to 177 | C[C@@H](N(CC(=O)O)C(=O)c1ccc(OCC(F)(F)F)cc1)[C@](O)(Cn1cncn1)c1ccc(F)cc1F (relative stereo)
218 to 222 | O=C(Nc1cccc(O)c1)c1ccc(CSc2ccc(O)cc2)cc1
165 to 170 | COc1ccccc1-c1nc2cc(C)ccc2c(=O)[nH]1
166 | CC(C)(C)OC(=O)COc1ccc2sc(C(=O)Nc3ccccc3NC(=O)OC(C)(C)C)cc2c1
262 to 263 | O=C(O)COc1ccc2c(=O)c3cc(Cl)ccc3oc2c1Cl
157 to 158 | N#Cc1ccc(C(=O)NCCC(=O)NC(CC(=O)OCc2ccccc2)C(=O)NC(Cc2ccccc2)C(=O)OCc2ccccc2)nc1 (stereo not drawn)
138 to 140 | CC(=O)Oc1c(Cl)ccc2c(-c3ccccc3)c(Sc3ccccc3)c(Sc3ccccc3)c(-c3ccccc3)c12

Compound | melting point [°C]
O=C(O)C(=O)c1cn(Cc2ccc(F)cc2)c2ccc(-c3ccccc3)cc12 | 165 to 166
NC1N=C(c2ccccc2)c2ccccc2N(CC(F)(F)F)C1=O (stereo not drawn) | 141 to 143
CNC(=O)ON=C1SCC(=O)N(C)C1C (stereo not drawn) | 161 to 163
Cc1nc(O)sc1C(=O)CBr | 162
COC(=O)c1cnc(CO)n1C(c1ccccc1)c1ccccc1 | 160
